US4889935A, “Aminoguanidine derivatives” (American Home Products Corporation, priority 1989, dated 1989)

Legend:
[1] = test system: LTB4 synthesis by rat polymorphonuclear leukocytes (lipoxygenase); assay: inhibition of LTB4 synthesis by rat glycogen-elicited polymorphonuclear leukocytes (PMN); format: cell-based, rat (female Wistar)
Protocol: This is especially true with respect to 5,12-diHETE, which is also denoted as LTB4 [See Ford-Hitchinson, J. Roy. Soc. Med., 74, 831 (1981)]. The assay of this Example measures the ability of the compounds of the invention to inhibit the synthesis of LTB4 by rat glycogenelicited polymorphonuclear leukocytes (PMN).
The assay is carried out as follows:
Rat polymorphonuclear leukocytes (PMNs) are obtained from female Wistar rats (150-200 g) which receive an injection of 6% glycogen (10 ml i.p.). Rats are sacrificed 18-24 hours post injection by CO2 asphyxiation and the elicited cells are harvested by peritoneal lavage using physiological saline (0.9% NaCl). The exudate is centrifuged at 400 x g for 10 minutes. The supernatant fluid is discarded and the cell pellet is resuspended to a concentration of 2.0×10^7 cells/ml in HBSS containing Ca^++ and Mg^++ and 10 μM L-cysteine.
To 1 ml aliquots of cell suspension, test drugs or vehicle are added, then preincubated at 37° C. for 10 minutes. […] Supernatants are then analyzed by HPLC analysis on a 15 cm×4.6 mm ID Supelcosil LC-18 (Supelco)(3M) column, using a two solvent system at a flow rate of 1.4 ml total flow as follows: […]
Injections: 150 μl of each supernatant is injected directly onto column and ^3 H arachidonic acid metabolites are monitored using an on-line radioactivity detector (Ramona, IN/US, Fairfield, NJ). […]

[2] = test system: carrageenan paw edema (acute inflammatory response) in Sprague-Dawley rats; assay: rat carrageenan paw edema assay; format: in vivo, rat (Sprague-Dawley); conditions: for % Inhibition (peroral) of paw edema: 1 hour before carrageenan, 3 hours
Protocol: The compounds of the invention are further tested in the rat carrageenan paw edema assay to determine their ability to inhibit the acute inflammatory response. This assay is carried out as follows: 140-180 gm mal Sprague-Dawley rats, in groups of 6 animals are injected subcutaneously in the right paw with 0.1 ml of 1% carrageenan at zero time. Mercury plethysmographic readings (ml) of the paw are made at zero time and 3 hours later. Test compounds are suspended or dissolved in 0.5% methycellulose and given perorally 1 hour prior to carrageenan administration. The increase in paw volume (edema in ml.) produced by the carrageenan is measured. […] Unpaired Student's t-test is used to determine statistical significance.

[3] = test system: adjuvant-induced polyarthritis in Sprague-Dawley rats; assay: adjuvant arthritis assay; format: in vivo, rat (Sprague-Dawley); conditions: oral dose 30 mg/kg

**Q.** How did the “>50% Inhibitory at 50 μm (LTB4 synthesis)” value [1] turn out when `CC(=NNC(=N)N)c1cccc(OCc2ccc3ccccc3n2)c1` [Example 2, 2-[1-[3-(2-Quinolinylmethoxy)phenyl]ethylidene]hydrazinecarboximidamide] was run?
**A.** + (those compounds having an inhibition of >50%)

**Q.** What about the “% Inhibition (peroral) of paw edema” value ([2]; at 100 mg/kg peroral) of the same compound?
**A.** 43%

**Q.** `CC(=NNC(=N)N)c1cccc(OCc2ccc3ccccc3c2)c1` [Example 1, 2-[1-[3-(2-Naphthalenylmethoxy)phenyl]ethylidene]-hydrazinecarboximidamide,0.1 hydrate] was tested. Which “% Inhibition (peroral) of paw edema” value ([2]; at 50 mg/kg peroral) did it give?
**A.** 42%

**Q.** And the “% Change of Right Paw Edema at Day 4” value ([3]; day 4)?
**A.** 50%

**Q.** What about the “% Change of Left Paw Edema at Day 16” value ([3]; day 16) of the same compound?
**A.** 31%

**Q.** For `COc1ccc2c(c1)c(CC(=O)O)c(C)n2C(=O)c1ccc(Cl)cc1` [Indomethacin, reference compound], which ED50 ([2]; Rattus norvegicus, po, 3 h, read-out: Oral ED50 (95% C.L.) mg/kg) is on record?
**A.** 3.7 mg/kg
